Measurements as given in patent US20250230153A1, “2,3-DIHYDROBENZO[B][1,4]DIOXIN-6-YL CONTAINING COMPOUNDS USEFUL AS IMMUNOMODULATORS” (BRISTOL-MYERS SQUIBB COMPANY, priority 2021, published 2025).
Structures can show the parent of a compound that is named as a salt.

Target: PD-1/PD-L1 (Homo sapiens (Human), UniProt Q9NZQ7)
Assay: PD-1/PD-L1 Homogenous Time-Resolved Fluorescence (HTRF) binding assay
Settings: PD-1-Ig (20 nM final)/PD-L1-His (10 nM final) binding assay
Description: The ability of the compounds of the invention to bind to PD-L1 was investigated using a PD-1/PD-L1 Homogenous Time-Resolved Fluorescence (HTRF) binding assay.
The interaction of PD-1 and PD-L1 can be assessed using soluble, purified preparations of the extracellular domains of the two proteins. The PD-1 and PD-L1 protein extracellular domains were expressed as fusion proteins with detection tags, for PD-1, the tag was the Fc portion of Immunoglobulin (PD-1-Ig) and for PD-L1 it was the 6 histidine motif (PD-L1-His). All binding studies were performed in an HTRF assay buffer consisting of dPBS supplemented with 0.1% […] bovine serum albumin and 0.05% (v/v) Tween-20. For the h/PD-L1-His binding assay, inhibitors were pre-incubated with PD-L1-His (10 nM final) for 15m in 4 μl of assay buffer, followed by addition of PD-1-Ig (20 nM final) in 1 μl of assay buffer and further incubation for 15 m. HTRF detection was achieved using europium crypate-labeled anti-Ig (1 nM final) and allophycocyanin (APC) labeled anti-His (20 nM final). Antibodies were diluted in HTRF detection buffer and 5 μl was dispensed on top of the binding reaction. The reaction mixture was allowed to equilibrate for 30 minutes and the resulting signal (665 nm/620 nm ratio) was obtained using an EnVision fluorometer. Additional binding assays were established between the human proteins PD-1-Ig/PD-L2-His (20 & 5 nM, respectively) and CD80-His/PD-L1-Ig (100 & 10 nM, respectively).
Recombinant Proteins: Human PD-1 (25-167) with a C-terminal human Fc domain of immunoglobulin G (Ig) epitope tag [hPD-1 (25-167)-3S-IG] and human PD-L1 (18-239) with a C-terminal His epitope tag [hPD-L1(18-239)-TVMV-His] were expressed in HEK293T cells and purified sequentially by ProteinA affinity chromatography and size exclusion chromatography. Human PD-L2-His and CD80-His was obtained through commercial sources.
Homogenous Time-Resolved Fluorescence (HTRF) Assays of Binding of Soluble PD-1 to Soluble PD-L1. Soluble PD-1 and soluble PD-L1 refers to proteins with carboxyl-end truncations that remove the transmembrane-spanning regions and are fused to heterologous sequences, specifically the Fc portion of the human immunoglobuling G sequence (Ig) or the hexahistidine epitope tag (His). All binding studies were performed in an HTRF assay buffer consisting of dPBS supplemented with 0.1% (w/v) bovine serum albumin and 0.05% (v/v) Tween-20. For the PD-1-Ig/PD-L1-His binding assay, inhibitors were pre-incubated with PD-L1-His (10 nM final) for 15m in 4 μl of assay buffer, followed by addition of PD-1-Ig (20 nM final) in 1 μl of assay buffer and further incubation for 15 m. PD-L1 fusion proteins from either human, cynomologous macaques, mouse, or other species were used. HTRF detection was achieved using europium crypate-labeled anti-Ig monoclonal antibody (1 nM final) and allophycocyanin (APC) labeled anti-His monoclonal antibody (20 nM final). Antibodies were diluted in HTRF detection buffer and 5 μl was dispensed on top of binding reaction. The reaction was allowed to equilibrate for 30 minutes and signal (665 nm/620 nm ratio) was obtained using an EnVision fluorometer. Additional binding assays were established between PD-1-Ig/PD-L2-His (20 and 5 nM, respectively), CD80-His/PD-L1-Ig (100 and 10 nM, respectively) and CD80-His/CTLA4-Ig (10 and 5 nM, respectively).
Recombinant Proteins. Carboxyl-truncated human PD-1 (amino acids 25-167) with a C-terminal human Ig epitope tag [hPD-1 (25-167)-3S-IG] and human PD-L1 (amino acids 18-239) with a C-terminal His epitope tag [hPD-L1(19-239)-tobacco vein mottling virus protease cleavage site (TVMV)-His] were expressed in HEK293T cells and purified sequentially by recombinant Protein A affinity chromatography and size exclusion chromatography. Human PD-L2-His (Sino Biologicals), CD80-His (Sino Biologicals), CTLA4-Ig (RnD Systems) were all obtained through commercial sources.

PD-1/PD-L1, sequence (Q9NZQ7 18-239): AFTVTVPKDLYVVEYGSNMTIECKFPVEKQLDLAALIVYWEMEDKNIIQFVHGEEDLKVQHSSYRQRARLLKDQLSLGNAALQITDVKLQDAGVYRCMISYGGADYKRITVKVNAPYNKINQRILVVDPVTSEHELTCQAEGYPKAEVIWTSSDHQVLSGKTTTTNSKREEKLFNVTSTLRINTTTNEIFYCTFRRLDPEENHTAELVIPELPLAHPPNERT

Compound	IC50 [nM]
Cc1c(COc2cc(OCc3cccc(CN)c3)c(CN3CCCC[C@H]3C(=O)O)cc2Cl)cccc1-c1ccc2c(c1)OCCO2 [Example 1017, (S)-1-(2-((3-(Aminomethyl)benzyl)oxy)-5-chloro-4-((3-(2,3-dihydrobenzo[b][1,4]dioxin-6-yl)-2-methylbenzyl)oxy)benzyl)piperidine-2-carboxylic acid, bis-trifluoroacetic acid salt]	20.2
Cc1c(COc2cc(OCc3cncc(C(=O)NS(C)(=O)=O)c3)c(CN3CCCC[C@H]3C(=O)O)cc2Cl)cccc1-c1ccc2c(c1)OCCO2 [Example 1021, (S)-1-(5-Chloro-4-((3-(2,3-dihydrobenzo[b][1,4]dioxin-6-yl)-2-methylbenzyl)oxy)-2-((5-((methylsulfonyl)carbamoyl)pyridin-3-yl)methoxy)benzyl)piperidine-2-carboxylic acid]	5.7
Cc1c(COc2cc(OCCN3CC[C@@H](O)C3)c(CN3CCCC[C@H]3C(=O)O)cc2Cl)cccc1-c1ccc2c(c1)OCCO2 [Example 1023, (S)-1-(5-Chloro-4-((3-(2,3-dihydrobenzo[b][1,4]dioxin-6-yl)-2-methylbenzyl)oxy)-2-(2-((R)-3-hydroxypyrrolidin-1-yl)ethoxy)benzyl)piperidine-2-carboxylic acid]	4.6
Cc1c(COc2cc(OCCCCN3CC[C@@H](O)C3)c(CN3CCCC[C@H]3C(=O)O)cc2Cl)cccc1-c1ccc2c(c1)OCCO2 [Example 1025, (S)-1-(5-Chloro-4-((3-(2,3-dihydrobenzo[b][1,4]dioxin-6-yl)-2-methylbenzyl)oxy)-2-(4-((R)-3-hydroxypyrrolidin-1-yl)butoxy)benzyl)piperidine-2-carboxylic acid]	15.6

Stronger by IC50, values ahead:

IC50 [nM]	Compound
4.1	Cc1c(COc2cc(OCc3cncc(S(N)(=O)=O)c3)c(CN[C@@](C)(CO)C(=O)O)cc2Cl)cccc1-c1ccc2c(c1)OCCO2 [Example 1019, (S)-2-((5-Chloro-4-((3-(2,3-dihydrobenzo[b][1,4]dioxin-6-yl)-2-methylbenzyl)oxy)-2-((5-sulfamoylpyridin-3-yl)methoxy)benzyl)amino)-3-hydroxy-2-methylpropanoic acid]
4	COC(=O)CCNS(=O)(=O)c1cncc(COc2cc(OCc3cccc(-c4ccc5c(c4)OCCO5)c3C)c(Cl)cc2CN[C@@](C)(CO)C(=O)O)c1 [Example 1018, (S)-2-((5-Chloro-4-((3-(2,3-dihydrobenzo[b][1,4]dioxin-6-yl)-2-methylbenzyl)oxy)-2-((5-(N-(3-methoxy-3-oxopropyl)sulfamoyl)pyridin-3-yl)methoxy)benzyl)amino)-3-hydroxy-2-methylpropanoic acid]
3.1	Cc1c(COc2cc(OCc3cncc(S(=O)(=O)NCCC(=O)O)c3)c(CN[C@@](C)(CO)C(=O)O)cc2Cl)cccc1-c1ccc2c(c1)OCCO2 [Example 1020, (S)-2-((2-((5-(N-(2-Carboxyethyl)sulfamoyl)pyridin-3-yl)methoxy)-5-chloro-4-((3-(2,3-dihydrobenzo[b]1[1,4]dioxin-6-yl)-2-methylbenzyl)oxy)benzyl)amino)-3-hydroxy-2-methylpropanoic acid]
2.7	Cc1c(COc2cc(OCCN3CC[C@@H](O)C3)c(CN[C@](C)(CO)C(=O)O)cc2Cl)cccc1-c1ccc2c(c1)OCCO2 [Example 1022, (R)-2-((5-Chloro-4-((3-(2,3-dihydrobenzo[b][1,4]dioxin-6-yl)-2-methylbenzyl)oxy)-2-(2-((R)-3-hydroxypyrrolidin-1-yl)ethoxy)benzyl)amino)-3-hydroxy-2-methylpropanoic acid]
0.5	Cc1c(COc2cc(OCCN3CC[C@@H](O)C3)c(CNC(C)(CO)CO)cc2Cl)cccc1-c1ccc2c(c1)OCCO2 [Example 1024, (R)-2-((5-Chloro-4-((3-(2,3-dihydrobenzo[b][1,4]dioxin-6-yl)-2-methylbenzyl)oxy)-2-(2-(3-hydroxypyrrolidin-1-yl)ethoxy)benzyl)amino)-2-methylpropane-1,3-diol]
